Source: patent US12459951B2, “Compounds that interact with RAS superfamily proteins for treatment of cancers, inflammatory diseases, rasopathies, and fibrotic disease” (SHY Therapeutics, LLC, priority 2022, dated 2025)

Columns and labels:
KRas G12D mutant = test: Ras GTP Binding Domain Inhibition Assay (Ras Superfamily Assay); conditions: at 20 μM; for KRas G12D mutant + SOS: % inh.: with SOS; for KRas G12D mutant: % inh.: without SOS
Procedure, shortened: (§1)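 Binding of 100 nM fluorescent GTP (Cy3 or Cy5, 45 min, room temperature) was read after washes from plate-captured His-tagged protein. Beforehand, compounds at 20 μM or in dilution series for IC50 sat 3 h on the protein in Tris buffer pH 7.4 or 7.0 with 1% DMSO, Sos GEF optionally added for the last hour.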

Rac-1 = target: T1, Rac-1 (Homo sapiens, UniProt P63000); test: as above; conditions: read-out: Rac-1: % inh.
T1 construct: made in house
Procedure, shortened: as §1

KRas wild type = test: as above; conditions: at 20 μM; for KRas wild type + SOS: % inh.: with SOS; for KRas wild type: % inh.: without SOS
Procedure, shortened: as §1

[1] = tested on: Smad2/Smad3 phosphorylation; test: Phospho-Smad2/3 Inhibition Assay (western blot), Panc-1; type: cell-based, human; conditions: at 10 μM, Panc-1 pancreatic cancer cell line; starred symbols = activation
Procedure, shortened: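 Panc-1 cells (KRas G12D), starved overnight in 0.5% FBS, treated 3 h at 37° C with compound at 10 μM final (0.3% DMSO) or serial dilutions for IC50, then stimulated with 10 ng/ml TGF-b1 for 1 h. Phospho-Smad2 (Ser465/467) and phospho-Smad3 (Ser423/425) detected by western blot.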

SMILES	KRas G12D mutant + SOS: % inh. (KRas G12D mutant)	KRas G12D mutant: % inh. (KRas G12D mutant)	inhibition at 20 µM (Rac-1)	KRas wild type + SOS: % inh. (KRas wild type)	KRas wild type: % inh. (KRas wild type)	% inh of Smad2/3 phosphorylation in Panc-1 [1]
Cc1c(-c2ccn(C)n2)cn2nc(-c3nccn3C)nc(Nc3cc[nH]n3)c12 [Compound 256, 5-Methyl-2-(1-methyl-1H-imidazol-2-yl)-6-(1-methyl-1H-pyrazol-3-yl)-N-(1H-pyrazol-3-yl)pyrrolo[2,1-f][1,2,4]triazin-4-amine]	D (D = 76-100% inhibition)	D (D = 76-100% inhibition)	76 to 100%	D (D = 76-100% inhibition)	A (A = 1-25% inhibition)	D* (D* = 76-100% activation)
Cc1c(-c2ccn(C)n2)cn2nc(-c3nccn3C)nc(Nc3cc(-c4ccncc4)[nH]n3)c12 [Compound 266, 5-Methyl-2-(1-methyl-1H-imidazol-2-yl)-6-(1-methyl-1H-pyrazol-3-yl)-N-(5-(pyridin-4-yl)-1H-pyrazol-3-yl)pyrrolo[2,1-f][1,2,4]triazin-4-amine]	D (D = 76-100% inhibition)	D (D = 76-100% inhibition)	76 to 100%	C (C = 50-75% inhibition)	D (D = 76-100% inhibition)	D* (D* = 76-100% activation)
Cc1cc(Nc2nc(-c3nccn3C)nn3cc(-c4ccn(C)n4)c(C)c23)n[nH]1 [Compound 255, 5-Methyl-2-(1-methyl-1H-imidazol-2-yl)-6-(1-methyl-1H-pyrazol-3-yl)-N-(5-methyl-1H-pyrazol-3-yl)pyrrolo[2,1-f][1,2,4]triazin-4-amine]	D (D = 76-100% inhibition)	D (D = 76-100% inhibition)	76 to 100%	D (D = 76-100% inhibition)	–	D* (D* = 76-100% activation)
Cc1c(-c2ccn(C)n2)cn2nc(-c3nccn3C)nc(Nc3ccc(N4CCOCC4)cn3)c12 [Compound 247, 5-Methyl-2-(1-methyl-1H-imidazol-2-yl)-6-(1-methyl-1H-pyrazol-3-yl)-N-(5-morpholinopyridin-2-yl)pyrrolo[2,1-f][1,2,4]triazin-4-amine]	D (D = 76-100% inhibition)	D (D = 76-100% inhibition)	76 to 100%	D (D = 76-100% inhibition)	D (D = 76-100% inhibition)	C* (C* = 46-75% activation)
Cc1c(-c2ccn(C)n2)cn2nc(-c3nccn3C)nc(Nc3cc(C(C)C)[nH]n3)c12 [Compound 268, N-(5-Isopropyl-1H-pyrazol-3-yl)-5-methyl-2-(1-methyl-1H-imidazol-2-yl)-6-(1-methyl-1H-pyrazol-3-yl)pyrrolo[2,1-f][1,2,4]triazin-4-amine]	D (D = 76-100% inhibition)	C (C = 50-75% inhibition)	76 to 100%	D (D = 76-100% inhibition)	C (C = 50-75% inhibition)	C (C = 46-75% inhibition)
Cc1c(-c2ccn(C)n2)cn2nc(-c3nccn3C)nc(Oc3cc(N)[nH]n3)c12 [Compound 262, 3-((5-Methyl-2-(1-methyl-1H-imidazol-2-yl)-6-(1-methyl-1H-pyrazol-3-yl)pyrrolo[2,1-f][1,2,4]triazin-4-yl)oxy)-1H-pyrazol-5-amine]	D (D = 76-100% inhibition)	D (D = 76-100% inhibition)	50 to 75%	C (C = 50-75% inhibition)	B (B = 26-49% inhibition)	B* (B* = 26-45% activation)
Cc1c(-c2ccn(C)n2)cn2nc(-c3nccn3C)nc(Nc3cc(C4CCC4)[nH]n3)c12 [Compound 257, N-(5-Cyclobutyl-1H-pyrazol-3-yl)-5-methyl-2-(1-methyl-1H-imidazol-2-yl)-6-(1-methyl-1H-pyrazol-3-yl)pyrrolo[2,1-f][1,2,4]triazin-4-amine]	D (D = 76-100% inhibition)	D (D = 76-100% inhibition)	50 to 75%	D (D = 76-100% inhibition)	C (C = 50-75% inhibition)	D* (D* = 76-100% activation)
COc1cccc(-c2cn3nc(-c4nccn4C)nc(N[C@H]4C[C@H](OC)C4)c3c2-c2ccccn2)c1C [Compound 274, 6-(3-Methoxy-2-methylphenyl)-N-((1r,3r)-3-methoxycyclobutyl)-2-(1-methyl-1H-imidazol-2-yl)-5-(pyridin-2-yl)pyrrolo[2,1-f][1,2,4]triazin-4-amine]	A (A = 1-25% inhibition)	B (B = 26-49% inhibition)	0%	0 (0 = 0% inhibition)	0 (0 = 0% inhibition)	D (D = 76-100% inhibition)
Cc1c(-c2ccn(C)n2)cn2nc(-c3nccn3C)nc(Nc3cc(-c4ccccn4)[nH]n3)c12 [Compound 265, 5-Methyl-2-(1-methyl-1H-imidazol-2-yl)-6-(1-methyl-1H-pyrazol-3-yl)-N-(5-(pyridin-2-yl)-1H-pyrazol-3-yl)pyrrolo[2,1-f][1,2,4]triazin-4-amine]	D (D = 76-100% inhibition)	C (C = 50-75% inhibition)	76 to 100%	D (D = 76-100% inhibition)	–	A (A = 1-25% inhibition)
Cc1[nH]nc(Nc2nc(-c3nccn3C)nn3cc(-c4ccn(C)n4)c(C)c23)c1C [Compound 267, N-(4,5-Dimethyl-1H-pyrazol-3-yl)-5-methyl-2-(1-methyl-1H-imidazol-2-yl)-6-(1-methyl-1H-pyrazol-3-yl)pyrrolo[2,1-f][1,2,4]triazin-4-amine]	D (D = 76-100% inhibition)	D (D = 76-100% inhibition)	76 to 100%	D (D = 76-100% inhibition)	D (D = 76-100% inhibition)	B (B = 26-45% inhibition)
Cc1c(-c2ccn(C)n2)cn2nc(-c3nccn3C)nc(Nc3cc(C(F)(F)F)[nH]n3)c12 [Compound 259, 5-Methyl-2-(1-methyl-1H-imidazol-2-yl)-6-(1-methyl-1H-pyrazol-3-yl)-N-(5-(trifluoromethyl)-1H-pyrazol-3-yl)pyrrolo[2,1-f][1,2,4]triazin-4-amine]	D (D = 76-100% inhibition)	C (C = 50-75% inhibition)	76 to 100%	D (D = 76-100% inhibition)	C (C = 50-75% inhibition)	A (A = 1-25% inhibition)
